Like-named read-outs stand apart in the source and are kept apart here.
Assays:
[1] = system: NL4-3 reference strain; test: PhenoSense phenotypic drug susceptibility assay, reference strain; assay type: cell-based, HIV-1; settings: Human immunodeficiency virus 1, NL43; over the several months of sample testing; read-out: IC50 measured for the NL4-3 reference strain
Description: Drug Susceptibility Assays. Clinical isolates were subjected to phenotypic (PhenoSense™) and genotypic (GeneSeq™) analysis by Virologic, Inc. as described elsewhere. Over the time period (several months) in which the samples reported here were tested, the ATV IC50 measured for the NL4-3 reference strain ranged from 0.9-2.0 nM. The success rate in obtaining phenotype and genotype results from patients experiencing virologic failure ranged from 30 to 50%, largely because of low HIV RNA levels (the assays used required levels of >=500 c/mL), insufficient sample volume, or no sample was available.

[2] = system: clinical isolates containing an I50V; test: PhenoSense phenotypic susceptibility of clinical isolates containing I50V; assay type: cell-based, HIV-1
Excerpt: Drug Susceptibility Assays. Clinical isolates were subjected to phenotypic (PhenoSense™) and genotypic (GeneSeq™) analysis by Virologic, Inc. as described elsewhere.
Because an I50V substitution is a signature mutation sometimes associated with APV resistance, the cross-resistance relationship between ATV and APV was further examined.

[3] = system: recombinant HIV-1 viruses (NL4-3, RF, LAI) in MT-2 cells; test: MT-2 cell susceptibility assay of recombinant viruses; assay type: cell-based
Description: Cells and Viruses. MT-2 cells, HIV-1 RF, HIV1-LAI, and the HIV-1 NL4-3 proviral clones were obtained through the AIDS Research and Reference Reagent Program, National Institutes of Health. MT-2 cells were cultured in RPMI 1640 medium supplemented with 10% fetal bovine serum, 2 mM L-glutamine, and 10 mM Hepes buffer. HIV-1 viruses were generated by transient transfection of the proviral DNA into Human Embryonic Kidney 293 cells using Lipofectamine reagents (Gibco BRL). The viruses were harvested 72 hr post-transfection, amplified in MT-2 cells, and titered in the same cells using a virus yield assay.
Recombinant HIV-1 Variants and Chimeric NL4-3 Proviral Clones. HIV-1 strains with defined substitutions in the protease gene were generated by QuikChange® site-directed mutagenesis as recommended by the manufacturer (Stratagene). Recombinant NL4-3 and LAI proviral clones containing the wild-type and mutant protease genes from RF and clinical isolates were constructed by replacing the SseI/ApaI fragment of pNL4-3 with the appropriate SseI/ApaI protease fragments.
Recombinant viruses (generated separately from those made for PhenoSense assays) were tested in an MT-2 cell susceptibility assay at Bristol Myers Squibb. MT-2 cells were infected with recombinant viruses at a multiplicity of infection (MOI) of 0.005 50% tissue culture infective doses (TCID50)/cell followed by incubation in the presence or absence of serially diluted protease inhibitors for 4 to 7 days. Virus yields were quantified using a RT assay as previously described. The results from at least four independent experiments were used to calculate the EC50.

Structure (SMILES): COC(=O)N[C@H](C(=O)N[C@@H](Cc1ccccc1)[C@@H](O)CN(Cc1ccc(-c2ccccn2)cc1)NC(=O)[C@@H](NC(=O)OC)C(C)(C)C)C(C)(C)C [ATV, atazanavir]
- IC50 [1]: 0.9 to 2 nM
- number of the eight isolates with FC less than 1.0 ([2]; 8 I50V isolates resistant to APV): Seven
- Susceptibility, Fold Change in EC50 relative to reference strain ([2]; Isolate with I50V 1): 0.3 Fold Change
- Susceptibility, Fold Change in EC50 relative to reference strain ([2]; Isolate with I50V 2): 0.4 Fold Change
- Susceptibility, Fold Change in EC50 relative to reference strain ([2]; Isolate with I50V 3): 0.6 Fold Change
- Susceptibility, Fold Change in EC50 relative to reference strain ([2]; Isolate with I50V 4): 1.2 Fold Change
- Susceptibility, Fold Change in EC50 relative to reference strain ([2]; Isolate with I50V 5): 0.4 Fold Change
- Susceptibility, Fold Change in EC50 relative to reference strain ([2]; Isolate with I50V 6): 0.8 Fold Change
- Susceptibility, Fold Change in EC50 relative to reference strain ([2]; Isolate with I50V 7): 0.5 Fold Change
- Susceptibility, Fold Change in EC50 relative to reference strain ([2]; Isolate with I50V 8): 0.5 Fold Change
- number of the eight isolates with FC of 0.4 or less ([2]; {}): 3
- EC50 ([3]; Human immunodeficiency virus 1, NL43, MT2, LAI A71V, read-out: ATV phenotype (value before parenthesis, EC50)): 3.7 ± 0.9 nM
- EC50 ([3]; Human immunodeficiency virus 1, NL43, MT2, LAI Control, read-out: ATV phenotype (value before parenthesis, EC50)): 1.5 ± 0.3 nM
- EC50 ([3]; Human immunodeficiency virus 1, NL43, MT2, LAI I50L, read-out: ATV phenotype (value before parenthesis, EC50)): 8.2 ± 3.4 nM
- EC50 ([3]; Human immunodeficiency virus 1, NL43, MT2, NL4-3 020: I50L + M46I, L63P, H69Q, V77I, I93L, read-out: ATV phenotype (value before parenthesis, EC50)): 1.9 ± 0.5 nM
- EC50 ([3]; Human immunodeficiency virus 1, NL43, MT2, NL4-3 100A: I50L + L63P, K70R, A71V, N88S, read-out: ATV phenotype (value before parenthesis, EC50)): 22.9 ± 6.4 nM
- EC50 ([3]; Human immunodeficiency virus 1, NL43, MT2, NL4-3 100B: I50L + L63P, K70R, A71V, G73S, read-out: ATV phenotype (value before parenthesis, EC50)): 27.8 ± 2.8 nM
- EC50 ([3]; Human immunodeficiency virus 1, NL43, MT2, NL4-3 296: I50L + K45R, L63P, A71V, G73S, V77I, I93L, read-out: ATV phenotype (value before parenthesis, EC50)): 7.1 ± 1.6 nM
- EC50 ([3]; Human immunodeficiency virus 1, NL43, MT2, NL4-3 347: I50L + I13V, E35D, M36I, M46L, L63P, A71V, V82A, read-out: ATV phenotype (value before parenthesis, EC50)): 12.1 ± 1.4 nM
- EC50 ([3]; Human immunodeficiency virus 1, NL43, MT2, NL4-3 372: I50L + L10I, L63P, G73S, I93L, read-out: ATV phenotype (value before parenthesis, EC50)): 9.8 ± 0.7 nM
- EC50 ([3]; Human immunodeficiency virus 1, NL43, MT2, NL4-3 398: I50L + E35D, M36L, N37S, R41K, R57K, I62V, L63P, I93L, read-out: ATV phenotype (value before parenthesis, EC50)): 9 ± 1.5 nM
- EC50 ([3]; Human immunodeficiency virus 1, NL43, MT2, NL4-3 450: I50L + L19I, R41K, A71V, T74S, read-out: ATV phenotype (value before parenthesis, EC50)): 4.4 ± 2.9 nM
- EC50 ([3]; Human immunodeficiency virus 1, NL43, MT2, NL4-3 A71V, read-out: ATV phenotype (value before parenthesis, EC50)): 2.4 ± 0.04 nM
- EC50 ([3]; Human immunodeficiency virus 1, NL43, MT2, NL4-3 Control (first group), read-out: ATV phenotype (value before parenthesis, EC50)): 0.8 ± 0.3 nM
- EC50 ([3]; Human immunodeficiency virus 1, NL43, MT2, NL4-3 I50L + A71V, read-out: ATV phenotype (value before parenthesis, EC50)): 8.6 ± 1.9 nM
- EC50 ([3]; Human immunodeficiency virus 1, NL43, MT2, NL4-3 I50L, read-out: ATV phenotype (value before parenthesis, EC50)): 3.1 ± 1.6 nM
- EC50 ([3]; Human immunodeficiency virus 1, NL43, MT2, RF A71V, read-out: ATV phenotype (value before parenthesis, EC50)): 0.6 ± 0.2 nM
- EC50 ([3]; Human immunodeficiency virus 1, NL43, MT2, RF Control, read-out: ATV phenotype (value before parenthesis, EC50)): 0.7 ± 0.1 nM
- EC50 ([3]; Human immunodeficiency virus 1, NL43, MT2, RF I50L + A71V, read-out: ATV phenotype (value before parenthesis, EC50)): 4 ± 0.3 nM
- EC50 ([3]; Human immunodeficiency virus 1, NL43, MT2, RF I50L, read-out: ATV phenotype (value before parenthesis, EC50)): 2.2 ± 1.8 nM
- EC50 ([3]; Human immunodeficiency virus 1, NL43, MT2, read-out: ATV phenotype (value before parenthesis, EC50), LAI 150L + A71V): 15.1 ± 4.7 nM
- EC50 ([3]; Human immunodeficiency virus 1, NL43, MT2, read-out: ATV phenotype (value before parenthesis, EC50), NL4-3 Control (second group, site-directed mutants)): 1.5 ± 0.1 nM
- ATV (Fold Change) ([3]; LAI 150L + A71V): 10 Fold Change
- ATV (Fold Change) ([3]; LAI A71V): 2.4 Fold Change
- ATV (Fold Change) ([3]; LAI I50L): 5.4 Fold Change
- ATV (Fold Change) ([3]; NL4-3 020: I50L + M46I, L63P, H69Q, V77I, I93L): 2.5 Fold Change
- ATV (Fold Change) ([3]; NL4-3 100A: I50L + L63P, K70R, A71V, N88S): 31 Fold Change
- ATV (Fold Change) ([3]; NL4-3 100B: I50L + L63P, K70R, A71V, G73S): 37 Fold Change
- ATV (Fold Change) ([3]; NL4-3 296: I50L + K45R, L63P, A71V, G73S, V77I, I93L): 9.5 Fold Change
- ATV (Fold Change) ([3]; NL4-3 347: I50L + I13V, E35D, M36I, M46L, L63P, A71V, V82A): 16 Fold Change
- ATV (Fold Change) ([3]; NL4-3 372: I50L + L10I, L63P, G73S, I93L): 13 Fold Change
- ATV (Fold Change) ([3]; NL4-3 398: I50L + E35D, M36L, N37S, R41K, R57K, I62V, L63P, I93L): 12 Fold Change
- ATV (Fold Change) ([3]; NL4-3 450: I50L + L19I, R41K, A71V, T74S): 5.9 Fold Change
- ATV (Fold Change) ([3]; NL4-3 A71V): 1.6 Fold Change
- ATV (Fold Change) ([3]; NL4-3 I50L): 2.1 Fold Change
- ATV (Fold Change) ([3]; NL4-3 I50L + A71V): 5.9 Fold Change
- ATV (Fold Change) ([3]; RF A71V): 0.9 Fold Change
- ATV (Fold Change) ([3]; RF I50L): 3 Fold Change
- ATV (Fold Change) ([3]; RF I50L + A71V): 5.7 Fold Change
- decrease in susceptibility ([3]; {}): 2.1-5.4 fold

From patent US20050148523A1, “Method of treating HIV infection in atazanavir-resistant patients using a combination of atazanavir and another protease inhibitor” (priority 2003, published 2005)
